According to PubChem BioAssay (NCI):
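Dose response: 5 concentrations. Exposure: 48 h. Format: 96-well plates. Endpoint: linear interpolation; highest concentration if not reached. At the GI50, growth is halved. The concentration for full growth arrest is given as TGI.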

What was measured:
Test in all cases: NCI-60 cell line screen, 48 h
[1] = tested on: CCRF-CEM leukemia
[2] = tested on: BT-549 breast
[3] = tested on: HL-60(TB) leukemia
[4] = tested on: IGROV1 ovarian
[5] = tested on: TK-10 renal
[6] = tested on: MCF7 breast
[7] = tested on: A549 NSCLC
[8] = tested on: SR leukemia
[9] = tested on: DU-145 prostate
[10] = tested on: MDA-MB-231 breast
[11] = tested on: RPMI-8226 leukemia
[12] = tested on: UACC-62 melanoma
[13] = tested on: HOP-62 NSCLC
[14] = tested on: A498 renal
[15] = tested on: M14 melanoma
[16] = tested on: HT29 colon
[17] = tested on: NCI-H522 lung
[18] = tested on: 786-0 renal
[19] = tested on: MDA-MB-435
[20] = tested on: U251 CNS
[21] = tested on: K-562 leukemia
[22] = tested on: OVCAR-3 ovarian
[23] = tested on: SF-295 CNS
[24] = tested on: SK-MEL-5 melanoma
[25] = tested on: PC-3 prostate
[26] = tested on: NCI-H226 lung
[27] = tested on: OVCAR-4 ovarian
[28] = tested on: SK-MEL-2 melanoma
[29] = tested on: OVCAR-5 ovarian
[30] = tested on: NCI/ADR-RES ovarian
[31] = tested on: HCC-2998 colon
[32] = tested on: LOX IMVI melanoma
[33] = tested on: HCT-116 colon
[34] = tested on: T-47D breast
[35] = tested on: HS 578T breast
[36] = tested on: CAKI-1 renal
[37] = tested on: SN12C renal
[38] = tested on: MOLT-4 leukemia
[39] = tested on: SK-OV-3 ovarian
[40] = tested on: UO-31 renal
[41] = tested on: UACC-257 melanoma
[42] = tested on: KM12 colon
[43] = tested on: NCI-H23 lung
[44] = tested on: SF-539 CNS
[45] = tested on: HOP-92 NSCLC
[46] = tested on: RXF 393 renal
[47] = tested on: ACHN renal
[48] = tested on: HCT-15 colon
[49] = tested on: NCI-H460 lung
[50] = tested on: SW-620 colon
[51] = tested on: SK-MEL-28 melanoma
[52] = tested on: SNB-75 CNS
[53] = tested on: SNB-19 CNS
[54] = tested on: EKVX NSCLC
[55] = tested on: SF-268 CNS
[56] = tested on: MALME-3M melanoma
[57] = tested on: OVCAR-8 ovarian
[58] = tested on: COLO 205 colon

CCCOC(=O)N[C@H]1CCc2c(Br)c(OC)c(OC)c(OC)c2-c2ccc(SC)c(=O)cc21
GI50 [1]: 0.0274 µM
TGI [1]: > 51.2 µM
GI50 [2]: 0.0223 µM
TGI [2]: 6.39 µM
GI50 [3]: 0.0245 µM
TGI [3]: 0.0784 µM
GI50 [4]: 0.0377 µM
TGI [4]: > 46.2 µM
GI50 [5]: 4.67 µM
TGI [5]: > 76.6 µM
GI50 [6]: < 0.01 µM
TGI [6]: 12.2 µM
GI50 [7]: 0.0395 µM
TGI [7]: > 68.4 µM
GI50 [8]: < 0.01 µM
TGI [8]: > 40.5 µM
GI50 [9]: 0.0305 µM
TGI [9]: 0.234 µM
GI50 [10]: 0.0359 µM
TGI [10]: 6.45 µM
GI50 [11]: 0.0259 µM
TGI [11]: 10.4 µM
GI50 [12]: 0.0365 µM
TGI [12]: 13.2 µM
GI50 [13]: 0.0633 µM
TGI [13]: > 100 µM
GI50 [14]: < 0.0135 µM
TGI [14]: 0.0509 µM
GI50 [15]: 0.0207 µM
TGI [15]: 3.67 µM
GI50 [16]: 0.0297 µM
TGI [16]: > 48 µM
GI50 [17]: < 0.0119 µM
TGI [17]: 0.558 µM
GI50 [18]: 0.0407 µM
TGI [18]: 11.4 µM
GI50 [19]: < 0.01 µM
TGI [19]: 0.0189 µM
GI50 [20]: 0.0363 µM
TGI [20]: 15.1 µM
GI50 [21]: < 0.01 µM
TGI [21]: > 100 µM
GI50 [22]: 0.0319 µM
TGI [22]: 10.4 µM
GI50 [23]: 0.0252 µM
TGI [23]: 0.833 µM
GI50 [24]: 0.0162 µM
TGI [24]: 0.0501 µM
GI50 [25]: 0.0197 µM
TGI [25]: > 100 µM
GI50 [26]: 0.0341 µM
TGI [26]: 6.71 µM
GI50 [27]: 0.158 µM
TGI [27]: > 100 µM
GI50 [28]: 2.44 µM
TGI [28]: 37.1 µM
GI50 [29]: 0.0501 µM
TGI [29]: 34.5 µM
GI50 [30]: 0.0345 µM
TGI [30]: > 57.4 µM
GI50 [31]: 0.0317 µM
TGI [31]: 4.26 µM
GI50 [32]: < 0.0177 µM
TGI [32]: 11.5 µM
GI50 [33]: 0.0248 µM
TGI [33]: 5.07 µM
GI50 [34]: 14.1 µM
TGI [34]: > 100 µM
GI50 [35]: 0.0321 µM
TGI [35]: 49.1 µM
GI50 [36]: 0.0339 µM
TGI [36]: 19.2 µM
GI50 [37]: 0.0437 µM
TGI [37]: 17.3 µM
GI50 [38]: 0.0382 µM
TGI [38]: > 100 µM
GI50 [39]: 0.0726 µM
TGI [39]: 59.5 µM
GI50 [40]: 0.103 µM
TGI [40]: 21.9 µM
GI50 [41]: 5.02 µM
TGI [41]: 32.6 µM
GI50 [42]: < 0.0145 µM
TGI [42]: 7.92 µM
GI50 [43]: 0.0348 µM
TGI [43]: > 57.3 µM
GI50 [44]: 0.0213 µM
TGI [44]: 0.0688 µM
GI50 [45]: 0.0411 µM
TGI [45]: 6.28 µM
GI50 [46]: 0.0397 µM
TGI [46]: 24.8 µM
GI50 [47]: 0.0431 µM
TGI [47]: 30.4 µM
GI50 [48]: 0.0218 µM
TGI [48]: > 36 µM
GI50 [49]: 0.0306 µM
TGI [49]: 2.02 µM
GI50 [50]: 0.0245 µM
TGI [50]: > 100 µM
GI50 [51]: 2.83 µM
TGI [51]: 23.2 µM
GI50 [52]: 0.0262 µM
TGI [52]: 25.5 µM
GI50 [53]: 0.0425 µM
TGI [53]: > 100 µM
GI50 [54]: 0.0474 µM
TGI [54]: > 100 µM
GI50 [55]: 0.0455 µM
TGI [55]: 17.8 µM
GI50 [56]: 0.0348 µM
TGI [56]: 27.2 µM
GI50 [57]: 0.0438 µM
TGI [57]: > 100 µM

CCOn1cc(C[C@@]2(O)C(=O)OC3[C@@H](O)CO[C@@]32O)c2ccccc21 (stereo partly specified)
TGI [1]: > 100 µM
TGI [2]: > 100 µM
TGI [3]: > 100 µM
TGI [4]: > 100 µM
TGI [5]: > 100 µM
TGI [6]: > 100 µM
TGI [7]: > 100 µM
TGI [8]: > 100 µM
TGI [9]: > 100 µM
TGI [10]: > 100 µM
TGI [11]: > 100 µM
TGI [12]: > 100 µM
TGI [13]: > 100 µM
TGI [14]: 4.09 µM
TGI [15]: > 100 µM
TGI [16]: > 100 µM
TGI [17]: > 100 µM
TGI [18]: > 100 µM
TGI [19]: > 100 µM
TGI [58]: > 100 µM
TGI [20]: > 100 µM
TGI [21]: > 100 µM
TGI [22]: > 100 µM
TGI [23]: > 100 µM
TGI [24]: > 100 µM
TGI [25]: > 100 µM
TGI [26]: > 100 µM
TGI [27]: > 100 µM
TGI [28]: > 100 µM
TGI [29]: > 100 µM
TGI [30]: > 100 µM
TGI [32]: > 100 µM
TGI [33]: > 100 µM
TGI [34]: > 100 µM
TGI [35]: > 100 µM
TGI [36]: > 100 µM
TGI [37]: > 100 µM
TGI [38]: > 100 µM
TGI [39]: > 100 µM
TGI [40]: > 100 µM
TGI [41]: > 100 µM
TGI [42]: > 100 µM
TGI [43]: > 100 µM
TGI [44]: > 100 µM
TGI [45]: > 100 µM
TGI [46]: > 100 µM
TGI [47]: > 100 µM
TGI [48]: > 100 µM
TGI [49]: > 100 µM
TGI [50]: > 100 µM
TGI [51]: > 100 µM
TGI [52]: > 100 µM
TGI [53]: > 100 µM
TGI [54]: > 100 µM
TGI [55]: > 100 µM
TGI [56]: > 100 µM
TGI [57]: > 100 µM
